Literature values in US8461314B2, “Nucleic acid sequences for biosynthesis of non-MccJ25-related lariat peptides” (Rutgers, The State University of New Jersey, priority 2007, dated 2013).

Key:
[1] = biological target: Gram-negative bacterial RNA polymerase (Escherichia coli, UniProt P0A8T7+P0A8V2)
[2] = biological target: Gram-positive bacterial RNAP (Bacillus subtilis, UniProt P37870+P37871)
[3] = biological target: Thermus-Deinoccoccus bacterial RNAP (Thermus thermophilus, UniProt Q8RQE8+Q8RQE9); details: including, for example
[4] = biological target: bacterial RNA polymerase (Escherichia coli, UniProt P0A8T7+P0A8V2)
[5] = test system: Escherchia coli
[6] = test system: Salmonella sp.
[7] = test system: Gram-positive bacterial; details: Gram-positive bacteria
[8] = test system: Thermococcus-Deinococcus bacterial growth; details: Thermococcus-Deinococcus bacteria
[9] = test system: RNA polymerase derivatives resistant to rifamycins
[10] = tested thermal and chemical denaturants
[11] = test system: mesophilic endo- and exopeptidease

Sequence of bacterial RNA polymerase (P0A800 whole entry): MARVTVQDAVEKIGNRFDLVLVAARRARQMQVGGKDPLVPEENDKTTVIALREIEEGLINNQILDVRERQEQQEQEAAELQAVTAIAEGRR
Sequence of bacterial RNA polymerase (P0A7Z4 whole entry, further chain): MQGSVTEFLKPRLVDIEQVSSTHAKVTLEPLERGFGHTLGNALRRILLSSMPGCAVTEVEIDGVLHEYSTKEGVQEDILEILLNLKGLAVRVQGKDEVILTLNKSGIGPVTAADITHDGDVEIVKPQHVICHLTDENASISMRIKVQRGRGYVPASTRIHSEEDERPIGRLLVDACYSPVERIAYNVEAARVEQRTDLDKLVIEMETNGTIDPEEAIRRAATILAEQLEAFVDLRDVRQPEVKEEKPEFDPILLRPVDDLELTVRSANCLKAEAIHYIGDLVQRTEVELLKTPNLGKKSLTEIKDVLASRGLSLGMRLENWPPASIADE
Sequence of bacterial RNA polymerase (P0A8T7 whole entry): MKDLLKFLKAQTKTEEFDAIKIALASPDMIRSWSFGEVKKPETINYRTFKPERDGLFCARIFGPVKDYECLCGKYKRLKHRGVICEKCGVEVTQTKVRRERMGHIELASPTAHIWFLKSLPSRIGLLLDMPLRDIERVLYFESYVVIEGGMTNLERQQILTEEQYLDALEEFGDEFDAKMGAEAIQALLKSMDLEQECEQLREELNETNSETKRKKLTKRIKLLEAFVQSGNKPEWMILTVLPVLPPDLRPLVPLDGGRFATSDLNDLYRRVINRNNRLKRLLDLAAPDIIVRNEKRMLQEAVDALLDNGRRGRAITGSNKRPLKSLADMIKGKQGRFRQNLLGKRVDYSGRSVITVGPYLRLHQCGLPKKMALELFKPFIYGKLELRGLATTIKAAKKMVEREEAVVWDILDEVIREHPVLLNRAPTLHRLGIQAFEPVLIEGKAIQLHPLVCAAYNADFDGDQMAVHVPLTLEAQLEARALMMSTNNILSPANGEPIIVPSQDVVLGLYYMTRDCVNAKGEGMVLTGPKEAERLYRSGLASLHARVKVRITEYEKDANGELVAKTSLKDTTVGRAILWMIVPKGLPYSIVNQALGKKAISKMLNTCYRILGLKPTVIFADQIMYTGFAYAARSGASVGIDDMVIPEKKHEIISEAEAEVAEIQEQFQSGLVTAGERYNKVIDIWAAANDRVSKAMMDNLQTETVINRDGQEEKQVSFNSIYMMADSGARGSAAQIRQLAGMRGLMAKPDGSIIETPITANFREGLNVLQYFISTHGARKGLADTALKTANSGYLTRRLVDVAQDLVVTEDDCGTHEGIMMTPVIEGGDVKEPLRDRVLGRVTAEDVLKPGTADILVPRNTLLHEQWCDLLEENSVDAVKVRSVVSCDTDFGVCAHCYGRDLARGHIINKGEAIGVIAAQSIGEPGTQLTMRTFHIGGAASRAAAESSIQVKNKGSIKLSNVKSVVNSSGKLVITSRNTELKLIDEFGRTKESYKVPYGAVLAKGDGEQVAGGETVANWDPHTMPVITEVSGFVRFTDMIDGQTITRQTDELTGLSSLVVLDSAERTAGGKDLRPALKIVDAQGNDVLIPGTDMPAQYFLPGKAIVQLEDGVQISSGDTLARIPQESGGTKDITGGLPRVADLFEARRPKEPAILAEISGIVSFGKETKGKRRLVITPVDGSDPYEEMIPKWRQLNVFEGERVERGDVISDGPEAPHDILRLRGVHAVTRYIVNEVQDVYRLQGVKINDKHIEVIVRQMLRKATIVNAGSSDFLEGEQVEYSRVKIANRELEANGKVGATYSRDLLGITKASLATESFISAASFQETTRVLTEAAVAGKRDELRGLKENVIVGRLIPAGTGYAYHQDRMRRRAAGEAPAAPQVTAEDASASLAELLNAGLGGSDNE
Sequence of bacterial RNA polymerase (P0A8V2 whole entry): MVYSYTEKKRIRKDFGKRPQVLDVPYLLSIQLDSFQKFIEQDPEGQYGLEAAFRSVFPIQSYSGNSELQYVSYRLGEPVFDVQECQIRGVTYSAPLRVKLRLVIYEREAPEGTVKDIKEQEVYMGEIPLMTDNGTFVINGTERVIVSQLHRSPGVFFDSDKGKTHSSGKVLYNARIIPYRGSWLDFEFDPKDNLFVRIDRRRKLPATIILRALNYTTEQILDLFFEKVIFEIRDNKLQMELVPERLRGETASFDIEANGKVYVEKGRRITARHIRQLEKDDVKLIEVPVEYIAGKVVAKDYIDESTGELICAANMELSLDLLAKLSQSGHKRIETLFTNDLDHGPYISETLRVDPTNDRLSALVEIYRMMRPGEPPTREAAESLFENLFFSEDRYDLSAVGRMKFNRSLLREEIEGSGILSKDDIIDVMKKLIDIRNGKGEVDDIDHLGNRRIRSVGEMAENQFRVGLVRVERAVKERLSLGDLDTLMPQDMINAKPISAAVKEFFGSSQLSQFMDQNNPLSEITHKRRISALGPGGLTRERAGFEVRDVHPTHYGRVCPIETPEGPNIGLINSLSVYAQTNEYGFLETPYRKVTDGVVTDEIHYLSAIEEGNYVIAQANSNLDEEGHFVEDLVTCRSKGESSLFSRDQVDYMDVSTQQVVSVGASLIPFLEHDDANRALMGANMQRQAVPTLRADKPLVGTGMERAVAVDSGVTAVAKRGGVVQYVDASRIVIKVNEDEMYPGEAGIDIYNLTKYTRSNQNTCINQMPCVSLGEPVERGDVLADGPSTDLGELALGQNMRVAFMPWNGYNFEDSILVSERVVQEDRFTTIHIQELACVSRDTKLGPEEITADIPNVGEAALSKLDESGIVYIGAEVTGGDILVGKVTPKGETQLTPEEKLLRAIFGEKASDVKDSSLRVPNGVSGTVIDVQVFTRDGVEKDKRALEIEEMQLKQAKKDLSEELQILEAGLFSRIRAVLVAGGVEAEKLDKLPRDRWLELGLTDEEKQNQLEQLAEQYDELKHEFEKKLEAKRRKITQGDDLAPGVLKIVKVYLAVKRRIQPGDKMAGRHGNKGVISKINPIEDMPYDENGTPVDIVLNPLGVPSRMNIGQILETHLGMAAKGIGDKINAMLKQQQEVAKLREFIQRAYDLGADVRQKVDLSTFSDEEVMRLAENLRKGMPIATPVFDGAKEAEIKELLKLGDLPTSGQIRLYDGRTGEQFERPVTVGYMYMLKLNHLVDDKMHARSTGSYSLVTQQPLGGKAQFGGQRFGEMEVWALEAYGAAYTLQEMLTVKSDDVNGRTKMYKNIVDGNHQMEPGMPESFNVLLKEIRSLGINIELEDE

propeptin
inhibition of Gram-negative bacterial RNA polymerase [1]: inhibit
inhibition of Gram-positive bacterial RNAP [2]: inhibit
inhibition of Thermus-Deinoccoccus bacterial RNAP [3]: inhibit
inhibition of bacterial RNA polymerase [4]: inhibit

Gly1-Gly2-Ala3-Gly4-His5-Pro6-Val7-Glu8-Tyr9-Phe10-Val11-Gly12-Ile13-Gly14-Thr15-Pro16-Ile17-Ser18-Phe19-Tyr20-Gly21 cyclic(8→1) peptide [MccJ25]
inhibition of Gram-negative bacterial RNA polymerase [1]: inhibits
inhibition of Gram-positive bacterial RNAP [2]: does not inhibit
inhibition of Thermus-Deinoccoccus bacterial RNAP [3]: does not inhibit
antibacterial activity [5]: exhibits antibacterial activity
antibacterial activity [6]: exhibits antibacterial activity
inhibition of bacterial growth [7]: not inhibit
inhibition of bacterial growth [8]: not inhibit
ability to inhibit RNA polymerase derivatives resistant to rifamycins [9]: retains full ability to inhibit
cross-resistance with rifamycins [9]: no cross-resistance
resistance to denaturation [10]: complete resistance
inhibition of bacterial RNA polymerase [4]: inhibits
resistance to proteolysis [11]: complete resistance
